Laboratory results published in patent publication US20230203008A1, “3-AZABICYCLOALKYL DERIVATIVE AND PHARMACEUTICAL COMPOSITION CONTAINING SAME” (LG CHEM, LTD., priority 2020, published 2023).

What follows are molecules tested against T1, KHK (Homo sapiens, UniProt P50053) (assay: Measurement of in vitro activity of KHK inhibitor (Transcreener ADP2 TR-FRET Red Assay)). Conditions: purified His-tagged KHK expressed in E. coli; 30 min preincubation with inhibitor, 15 min substrate reaction; Morrison equation.
T1 construct: His tag; made in house; host or cells: E. coli
T1 sequence (P50053 1-298): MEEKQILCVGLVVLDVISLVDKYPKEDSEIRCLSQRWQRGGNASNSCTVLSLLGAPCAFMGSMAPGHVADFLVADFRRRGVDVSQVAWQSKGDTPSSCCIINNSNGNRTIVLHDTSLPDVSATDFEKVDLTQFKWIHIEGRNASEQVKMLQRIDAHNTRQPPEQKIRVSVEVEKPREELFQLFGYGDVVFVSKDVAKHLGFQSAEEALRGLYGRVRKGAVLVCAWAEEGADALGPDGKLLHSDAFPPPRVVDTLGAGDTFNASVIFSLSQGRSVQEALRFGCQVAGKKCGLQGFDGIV
Type: biochemical
Procedure: KHK was expressed in E. coli, and purified using a His tag. To measure the activity of the purified KHK, a Transcreener ADP2 TR-FRET Red Assay kit of BellBrook Labs was used. The Transcreener ADP2 TR-FRET Red Assay kit is a method of measuring an amount of generated ADP using TR-FRET after proper concentrations of KHK and ATP, and a fructose-containing solution were reacted for 15 minutes. To measure the activity of a KHK inhibitor, KHK and a proper concentration of an inhibitor were first reacted for 30 minutes, and reacted with a solution containing a KHK substrate for 15 minutes. In addition, after the TR-FRET reaction for 1 hour, fluorescence was measured using an Envision apparatus of PerkinElmer. A setting value of the Envision apparatus was determined according to the TR-FRET optimization procedures published by BellBrook Labs.
The resulting value for each concentration of the KHK inhibitor is determined a ratio of a 665-nm wavelength and a 615-nm wavelength. Here, the 665/615 ratio was converted to an ADP concentration based on an ADP standard curve, and the inhibitory activity, a Ki value, was obtained using the Morrison equation in statistical software (Prizm).
For C[C@H]1CCN1c1nc(N2C[C@H]3C[C@@H](C2)[C@@H]3CC(=O)O)c2c(n1)C(F)(F)CC2 [Example 8, 2-((1R,5S,6S)-3-(7,7-difluoro-2-((S)-2-methylazetidin-1-yl)-6,7-dihydro-5H-cyclopenta[d]pyrimidin-4-yl)-3-azabicyclo[3.1.1]heptan-6-yl)acetic acid], the Ki was ≤ 100 nM. In the case of C[C@H]1CCN1c1nc(N2C[C@H]3C[C@@H](C2)[C@@H]3CC(=O)O)c2c(c1C#N)CCC2 [Example 1, 2-((1R,5S,6S)-3-(4-cyano-3-((S)-2-methylazetidin-1-yl)-6,7-dihydro-5H-cyclopenta[c]pyridin-1-yl)-3-azabicyclo[3.1.1]heptan-6-yl)acetic acid], the Ki is reported as ≤ 100 nM. For C[C@H]1CCN1c1nc(N2C[C@@H]3[C@@H](CC(=O)O)[C@@H]3C2)c2c(n1)C(F)(F)CCC2 [Example 11, 2-((1R,5S,6S)-3-(8,8-difluoro-2-((S)-2-methylazetidin-1-yl)-5,6,7,8-tetrahydroquinazolin-4-yl)-3-azabicyclo[3.1.0]hexan-6-yl)acetic acid], the Ki was ≤ 100 nM. With C[C@H]1CCN1c1nc(N2C[C@H]3C[C@@H](C2)[C@@H]3CC(=O)O)c2c(c1C#N)CCOC2 [Example 4, 2-((1R,5S,6S)-3-(5-cyano-6-((S)-2-methylazetidin-1-yl)-3,4-dihydro-1H-pyrano[3,4-c]pyridin-8-yl)-3-azabicyclo[3.1.1]heptan-6-yl)acetic acid] the Ki was ≤ 100 nM. For C[C@H]1CCN1c1nc(N2CC3CC(C2)C3CC(=O)O)c2c(n1)C(C)(C)OC2 (stereo partly drawn) [Example 5, 2-(3-(7,7-dimethyl-2-((S)-2-methylazetidin-1-yl)-5,7-dihydrofuro[3,4-d]pyrimidin-4-yl)-3-azabicyclo[3.1.1]heptan-6-yl)acetic acid], the Ki was 100 to 1000 nM. For C[C@H]1CCN1c1nc(N2C[C@H]3C[C@@H](C2)[C@@H]3CC(=O)O)c2c(n1)C(F)(F)CCC2 [Example 10, 2-((1R,5S,6S)-3-(8,8-difluoro-2-((S)-2-methylazetidin-1-yl)-5,6,7,8-tetrahydroquinazolin-4-yl)-3-azabicyclo[3.1.1]heptan-6-yl)acetic acid], the Ki was ≤ 100 nM. Work on C[C@@H]1OCc2c1nc(N1CC[C@@H]1C)nc2N1C[C@@H]2[C@@H](CC(=O)O)[C@@H]2C1 [Example 7, 2-((1R,5S,6S)-3-((S)-7-methyl-2-((S)-2-methylazetidin-1-yl)-5,7-dihydrofuro[3,4-d]pyrimidin-4-yl)-3-azabicyclo[3.1.0]hexan-6-yl)acetic acid] yielded a Ki of 100 to 1000 nM. Molecule O=C(O)C[C@@H]1[C@H]2CN(c3nc(N4CCCC4)nc4c3CCCC4(F)F)C[C@@H]12 [Example 12, 2-((1R,5S,6S)-3-(8,8-difluoro-2-(pyrrolidin-1-yl)-5,6,7,8-tetrahydroquinazolin-4-yl)-3-azabicyclo[3.1.0]hexan-6-yl)acetic acid] has a Ki of 100 to 1000 nM. In the case of C[C@H]1CCN1c1nc(N2C[C@@H]3[C@@H](CC(=O)O)[C@@H]3C2)c2c(n1)C(F)(F)CC2 [Example 9, 2-((1R,5S,6S)-3-(7,7-difluoro-2-((S)-2-methylazetidin-1-yl)-6,7-dihydro-5H-cyclopenta[d]pyrimidin-4-yl)-3-azabicyclo[3.1.0]hexan-6-yl)acetic acid], the Ki is reported as ≤ 100 nM. For C[C@H]1CCN1c1nc(N2CC3CC(C2)C3CC(=O)O)c2c(c1C#N)CCCCC2 (stereo partly drawn) [Example 3, 2-(3-(4-cyano-3-((S)-2-methylazetidin-1-yl)-6,7,8,9-tetrahydro-5H-cyclohepta[c]pyridin-1-yl)-3-azabicyclo[3.1.1]heptan-6-yl)acetic acid], the Ki was ≤ 100 nM. C[C@@H]1OCc2c1nc(N1CC[C@@H]1C)nc2N1C[C@H]2C[C@@H](C1)[C@@H]2CC(=O)O [Example 6, 2-((1R,5S,6S)-3-((S)-7-methyl-2-((S)-2-methylazetidin-1-yl)-5,7-dihydrofuro [3,4-d]pyrimidin-4-yl)-3-azabicyclo[3.1.1]heptan-6-yl)acetic acid] showed a Ki of 100 to 1000 nM. For C[C@H]1CCN1c1nc(N2C[C@H]3C[C@@H](C2)[C@@H]3CC(=O)O)c2c(c1C#N)CCCC2 [Example 2, 2-((1R,5S,6S)-3-(4-cyano-3-((S)-2-methylazetidin-1-yl)-5,6,7,8-tetrahydroisoquinolin-1-yl)-3-azabicyclo[3.1.1]heptan-6-yl)acetic acid], the Ki was ≤ 100 nM.
